Assay results as given in US20060189576A1, “Substituted vitamin d analogues and their therapeutic uses” (priority 2003, published 2006).
Read-outs that look alike come from different tables or passages of the source.

Columns and labels:
[1] = for Femur calcium: NMRI mice, 7 consecutive days; for IN VIVO STUDIES Osteocalcin serum: mice, daily intraperitoneal injection 7 consecutive days, percentage activity vs 1α,25(OH)2D3 (=100%); for IN VIVO STUDIES Calcium serum / IN VIVO STUDIES Calcium urine / Serum calcium in mice / further reduction of calcemic activity by the 2β counterpart: mouse, in vivo; for IN VIVO STUDIES Calcium serum / IN VIVO STUDIES Calcium urine / Serum calcium in mice: ip
Experimental: Eight weeks old, male NMRI mice were obtained from the Proefdierencentrum of Leuven (Belgium) and fed a vitamin D-replete diet (0.2% calcium, 1% phosphate, 2000 U vitamin D/kg; Hope Farms, Woerden, The Netherlands). […] The control group was injected with vehicle (arachis oil). The average weight of each group of 6 mice was determined at the beginning and at the end of the experiment. The following parameters were evaluated: serum calcium, serum osteocalcin, femur calcium and urinary calcium. Serum and urinary calcium were measured by a microcolorimetric assay (Sigma, St. Louis, Mo.). Femurs were removed and femur calcium content was measured in HCl-dissolved bone ash (obtained by heating for 24 h in an oven at 100° C.), using the same technique as for serum and urinary calcium.

MCF-7 cells = experiment: MCF-7 cell proliferation ([3H]thymidine incorporation); assay type: cell-based; details: for IN VITRO STUDIES MCF-7: antiproliferative action, percentage activity vs 1α,25(OH)2D3 (=100%); for Antiproliferative activity on MCF-7 cells: percentage activity (at 50% of the dose response) vs 1α,25(OH)2D3 (=100%); for antiproliferative effect (in words) / antiproliferative activity, times that of 1α,25(OH)2D3: MCF-7 cells
Experimental: To evaluate the effect of on cell proliferation, malignant MCF-7 cells were cultured in DMEM/nut. mix. […] Cultures were maintained at 37° C. in a humidified atmosphere of 5% CO2 in air. MCF-7 cells were seeded at 5×10^3 cells/well in the above described medium in 96-well microtiter plates in a final volume of 0.2 ml per well. Triplicate cultures were performed. […] Then, 1 μCi [^3H]thymidine was added to each well and cells were harvested after 4 h incubation with a Packard harvester and measured by the Packard Topcount System (Packard, Meriden, USA).

HL-60 cells = experiment: HL-60 cell differentiation (NBT reduction assay); assay type: cell-based; details: for IN VITRO STUDIES HL 60: potency to differentiate HL 60 cells, percentage activity vs 1α,25(OH)2D3 (=100%)
Experimental: To evaluate the effect on cell differentiation HL-60 cells were seeded at 4×10^4 cells/ml in 25 cm^2 Falcon tissue chambers using RPMI 1640 medium supplemented with 20% FCS and gentamycin (50 μg/ml) in a final volume of 5 ml. Cultures were maintained at 37° C. in a humidified atmosphere of 5% CO2 in air. […] After 4 days of culture, the dishes were shaken to lose adherent cells. Cells were washed twice in RPMI, counted and assayed for differentiation markers (NBT reduction assay). Superoxide production was measured as NBT reducing activity as described previously (Ostrem V. K et al. Proc Natl Acad Sci USA 84: 2610-2614, 1987). HL-60 cells at 1×10^6/ml were mixed with an equal volume of freshly prepared solution of phorbol 12-myristate 13-acetate (200 ng/ml) and […] and incubated for 30 min at 37° C. The percentage of cells containing black formazan deposits was determined using a hemacytometer.

hDBP = biological target: T1, hDBP (Homo sapiens, UniProt P02774); experiment: Affinity for human DBP: competition with [3H]1α,25(OH)2D3; assay type: binding; details: percentage activity (at 50% of the dose response) in comparison with 1α,25(OH)2D3 (=100%)
T1 sequence (P02774 17-474): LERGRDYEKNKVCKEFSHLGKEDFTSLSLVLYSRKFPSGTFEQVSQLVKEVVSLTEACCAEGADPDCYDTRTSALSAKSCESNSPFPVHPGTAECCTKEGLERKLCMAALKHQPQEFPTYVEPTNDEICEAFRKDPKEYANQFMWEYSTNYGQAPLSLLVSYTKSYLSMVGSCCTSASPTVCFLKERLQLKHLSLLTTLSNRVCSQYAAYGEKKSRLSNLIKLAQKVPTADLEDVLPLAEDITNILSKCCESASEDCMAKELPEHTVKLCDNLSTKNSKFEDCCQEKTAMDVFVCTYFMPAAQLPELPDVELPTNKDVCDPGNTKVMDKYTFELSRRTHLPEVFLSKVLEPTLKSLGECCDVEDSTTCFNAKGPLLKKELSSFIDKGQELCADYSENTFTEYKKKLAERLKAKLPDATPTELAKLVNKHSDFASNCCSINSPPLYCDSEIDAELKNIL
Experimental: Phase separation was then obtained by the addition of 0.5 ml of cold dextran-coated charcoal.

vitamin D receptor = biological target: T2, vitamin D receptor (Sus scrofa, UniProt A3RGC1); details: percentage activity (at 50% of the dose response) in comparison with 1α,25(OH)2D3 (=100%)
T2 sequence (A3RGC1 1-427): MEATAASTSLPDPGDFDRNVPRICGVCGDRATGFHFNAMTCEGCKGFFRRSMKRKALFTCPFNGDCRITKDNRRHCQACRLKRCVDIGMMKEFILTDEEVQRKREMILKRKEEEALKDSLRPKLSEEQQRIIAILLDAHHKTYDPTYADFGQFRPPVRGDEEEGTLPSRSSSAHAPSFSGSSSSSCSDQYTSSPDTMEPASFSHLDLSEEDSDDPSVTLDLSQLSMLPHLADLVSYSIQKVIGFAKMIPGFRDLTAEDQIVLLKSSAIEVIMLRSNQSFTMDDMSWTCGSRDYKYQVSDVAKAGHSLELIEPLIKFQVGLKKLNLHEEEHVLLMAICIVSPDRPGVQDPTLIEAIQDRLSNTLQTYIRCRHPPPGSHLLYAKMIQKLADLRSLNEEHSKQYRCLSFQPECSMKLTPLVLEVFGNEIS
Experimental: The incubation was performed at 4° C. for 20 h and phase separation was obtained by addition of dextran-coated charcoal.

Row | Compound | IN VIVO STUDIES Calcium serum [1] [%] | IN VIVO STUDIES Calcium urine [1] [%] | AFFINITY STUDIES DBP (hDBP) [%] | AFFINITY STUDIES VDR (vitamin D receptor) [%] | further reduction of calcemic activity by the 2β counterpart [1] [fold] | Femur calcium ([1]; 0.1 μg/kg/d intraperitoneally) [mg] | Femur calcium ([1]; 0.2 μg/kg/d intraperitoneally) [mg] | Femur calcium ([1]; 0.4 μg/kg/d intraperitoneally) [mg] | IN VIVO STUDIES Osteocalcin serum [1] [%] | Serum calcium in mice [1] [%] | IN VITRO STUDIES MCF-7 (MCF-7 cells) [%] | Antiproliferative activity on MCF-7 cells (MCF-7 cells) [%] | IN VITRO STUDIES HL 60 (HL-60 cells) [%] | times less active than the parent compound to inhibit MCF-7 cell proliferation (MCF-7 cells; parent compound 1α,25(OH)2D3) [times] | prodifferentiating effect (in words) (HL-60 cells; HL 60 cells) | antiproliferative effect (in words) (MCF-7 cells) | antiproliferative activity, times that of 1α,25(OH)2D3 (MCF-7 cells) [times] | prodifferentiating activity, times that of 1α,25(OH)2D3 (HL-60 cells; HL 60 cells) [times] | increase of capacity to inhibit the proliferation of MCF-7 cells on introduction of the 23-yne side chain (MCF-7 cells; compared with analogue 102) [times] | times more potent than 1α,25(OH)2D3 in vitro (MCF-7 cells; range over HL 60 differentiation and MCF-7 proliferation, test not specified) [times]
1 | C=C1/C(=C\C=C2/CCC[C@]3(C)[C@@H]([C@H](C)CCCC(C)(C)O)CC[C@@H]23)C[C@@H](O)C[C@@H]1O [1α,25(OH)2D3, 1α,25-dihydroxyvitamin D3, reference compound] | 100 | 100 | – | – | – | 8.9 ± 0.50 | 9.23 ± 0.31 | 8.75 ± 0.15 | 100 | 100 | 100 | 100 | 100 | – | – | – | – | – | – | –
2 | C[C@H](CCCC(C)(C)O)[C@H]1CC[C@@H]2/C(=C/C=C3C[C@@H](O)C[C@H](O)C3)CCC[C@@]21C [14-epi-19-nor-1α,25(OH)2D3, reference compound] | 0.3 | 0.4 | 15 | 19 | – | – | – | – | – | – | 30 | – | 50 | 3 | half as potent as the parent compound | – | – | – | – | –
3 | CC(CC#CC(C)(C)O)C1CCC2C(=CC=C3CC(O)C(C)C(O)C3)CCCC21C (stereo not drawn) [Compound 104, 2α-methyl-19-nor-23-yn-1α,25-dihydroxyvitamin D3] | 10 | – | 4 | 70 | – | – | – | – | 4 | – | 10500 | – | 1500 | – | very potent | very potent | 100 | – | 26 | –
4 | CC(CCCC(C)(C)O)C1CCC2C(=CC=C3CC(O)C(C)C(O)C3)CCCC21C (stereo not drawn) [Compound 106, 14-epi-2α-methyl-19-nor-1α,25-dihydroxyvitamin D3] | 13 | 6 | 9 | 90 | – | – | – | – | 13 | – | 900 | – | 600 | – | very potent | very potent | – | – | – | –
5 | CC(CC#CC(C)(C)O)C1CCC2C(=CC=C3CC(O)C(C)C(O)C3)CCCC21C (stereo not drawn) [Compound 107, 14-epi-2β-methyl-19-nor-23-yn-1α,25-dihydroxyvitamin D3] | 0.4 | 1.6 | 0 | 10 | – | – | – | – | 0.8 | – | 350 | – | 400 | – | – | – | – | – | – | –
6 | CC(CC#CC(C)(C)O)C1CCC2C(=CC=C3CC(O)C(C)C(O)C3)CCCC21C (stereo not drawn) [Compound 118, 1,14-bis-epi-2β-methyl-19-nor-23-yn-1α,25-dihydroxyvitamin-D3] | <0.25 | <0.25 | 3 | 6 | – | – | – | – | – | – | – | – | 0 | – | not active at all | – | – | – | – | –

The next lines start with results.

Row | IN VIVO STUDIES Calcium serum [1] [%] | IN VIVO STUDIES Calcium urine [1] [%] | AFFINITY STUDIES DBP (hDBP) [%] | AFFINITY STUDIES VDR (vitamin D receptor) [%] | further reduction of calcemic activity by the 2β counterpart [1] [fold] | Compound | Femur calcium ([1]; 0.1 μg/kg/d intraperitoneally) [mg] | Femur calcium ([1]; 0.2 μg/kg/d intraperitoneally) [mg] | Femur calcium ([1]; 0.4 μg/kg/d intraperitoneally) [mg] | IN VIVO STUDIES Osteocalcin serum [1] [%] | Serum calcium in mice [1] [%] | IN VITRO STUDIES MCF-7 (MCF-7 cells) [%] | Antiproliferative activity on MCF-7 cells (MCF-7 cells) [%] | IN VITRO STUDIES HL 60 (HL-60 cells) [%] | times less active than the parent compound to inhibit MCF-7 cell proliferation (MCF-7 cells; parent compound 1α,25(OH)2D3) [times] | prodifferentiating effect (in words) (HL-60 cells; HL 60 cells) | antiproliferative effect (in words) (MCF-7 cells) | antiproliferative activity, times that of 1α,25(OH)2D3 (MCF-7 cells) [times] | prodifferentiating activity, times that of 1α,25(OH)2D3 (HL-60 cells; HL 60 cells) [times] | increase of capacity to inhibit the proliferation of MCF-7 cells on introduction of the 23-yne side chain (MCF-7 cells; compared with analogue 102) [times] | times more potent than 1α,25(OH)2D3 in vitro (MCF-7 cells; range over HL 60 differentiation and MCF-7 proliferation, test not specified) [times]
7 | 0.5 | – | 9 | 75 | 80 | CC(CCCC(C)(C)O)C1CCC2C(=CC=C3CC(O)C(C)C(O)C3)CCCC21C (stereo not drawn) [Compound 101, 2β-methyl-19-nor-1α,25-dihydroxyvitamin D3] | – | – | – | – | – | 80 | – | 70 | – | less potent than 1α,25(OH)2D3 | less potent than 1α,25(OH)2D3 | – | – | – | –
8 | 40 | – | 50 | 90 | – | CC(CCCC(C)(C)O)C1CCC2C(=CC=C3CC(O)C(C)C(O)C3)CCCC21C (stereo not drawn) [Compound 102, 2α-methyl-19-nor-1α,25-dihydroxyvitamin D3] | – | – | – | 15 | – | 400 | – | 1000 | – | very potent | very potent | 4 | 10 | – | –
9 | 0.4 | 1.6 | 1 | 20 | – | CC(CC#CC(C)(C)O)C1CCC2C(=CC=C3CC(O)C(C)C(O)C3)CCCC21C (stereo not drawn) [Compound 103, 2β-methyl-19-nor-23-yn-1α,25-dihydroxyvitamin D3] | – | – | – | 0.8 | 0.4 | 900 | 900 | 100 | – | – | – | – | – | – | –
10 | 0.4 | 0.4 | 7 | 60 | – | CC(CCCC(C)(C)O)C1CCC2C(=CC=C3CC(O)C(C)C(O)C3)CCCC21C (stereo not drawn) [Compound 105, 14-epi-2β-methyl-19-nor-1α,25-dihydroxyvitamin D3] | – | – | – | 0.8 | – | 20 | – | 75 | – | – | – | – | – | – | –
11 | 0.4 | 0.8 | 9 | 40 | 16 | CCC1C(O)CC(=CC=C2CCCC3(C)C2CCC3C(C)CCCC(C)(C)O)CC1O (stereo not drawn) [Compound 109, 2β-ethyl-19-nor-1α,25(OH)2D3] | – | – | – | 0.8 | – | 90 | – | 10 | – | less active than 1α,25(OH)2D3 | less active than 1α,25(OH)2D3 | – | – | – | –
12 | 13 | 13 | 20 | 90 | – | CCC1C(O)CC(=CC=C2CCCC3(C)C2CCC3C(C)CCCC(C)(C)O)CC1O (stereo not drawn) [Compound 110, 2α-ethyl-19-nor-1α,25(OH)2D3] | – | – | – | 13 | – | 650 | – | 200 | – | very potent | very potent | – | – | – | 2 to 6
13 | – | – | – | 9 | – | CC(CC#CC(C)(C)O)C1CCC2C(=CC=C3CC(O)C(C)C(O)C3)CCCC21C (stereo not drawn) [Compound 141] | – | – | – | – | – | 4500 | – | 1500 | – | very potent | very potent | – | – | – | –
14 | – | – | – | 10 | – | CCC1C(O)CC(=CC=C2CCCC3(C)C2CCC3C(C)CC#CC(C)(C)O)CC1O (stereo not drawn) [Compound 142] | – | – | – | – | – | 1500 | – | 400 | – | very potent | very potent | – | – | – | –
